Laboratory results reported in patent US20090111736A1, “Orally-Absorbed Solid Dose Formulation for Vancomycin” (SRI International, priority 2007, published 2009).
Where a name gives a salt, the structure may show the parent alone.

Assays:
[1] = In vitro mucosal-to-serosal vancomycin transport, modified Ussing chambers, duodenum; format: in vitro ADME, rat; details: male, rat, pH 7.4, 5 mg/ml, HEPES buffer alone
From the text: (§1) We investigated regional variation in permeation of vancomycin (VCM) across various segments of rat intestine and colon in vitro by mounting isolated segments of rat intestine and colon between horizontal modified Ussing chambers. The effects of drug concentration and of addition of a p-glycoprotein inhibitor or permeation enhancer(s) as formulation additives on VCM permeation were also studied in vitro using segments of rat jejunum.
(§2) Methods: A modified Ussing system (Easy mount Ussing system, Physiological Instruments Inc., CA, Item # EM-CSYS-8) with eight sets of chambers was used for all in vitro studies; each set consisted of two parallel diffusion chambers, a heating block for temperature control, needle valves for gas flow adjustment and gas mixing, and Ag/AgCl voltage and current electrodes for measuring transepithelial voltage and for passing current.
(§3) Harvesting of required small intestinal or colon segments of a male rat was performed using experimental procedures described in the literature (Gotoh et al., J Biomol Screen (2005) 10:517-23). The harvested segments of small intestine or colon were mounted on sliders placed between the two horizontal chambers of a modified Ussing system.
(§4) VCM was dissolved in HEPES buffer pH 7.4 (Table 1) previously saturated with 100% O2 or HEPES buffer containing additives selected from permeation enhancer(s) and/or an efflux transport inhibitor (Table 2) to obtain predetermined concentrations of drug and additive(s).
(§5) Drug transport across epithelial membranes of harvested rat small intestine and colon segments, in mucosal-to-serosal (M-to-S) direction, was studied using modified Ussing Chambers. Aliquots of HEPES buffer (5 ml) were initially added to both the mucosal and serosal chambers and allowed to equilibrate for 20 minutes. The HEPES buffer in the mucosal chamber was replaced by a study sample containing VCM alone or VCM and selected additive(s) in HEPES buffer, e.g., 5 mg/mL of VCM dissolved in HEPES buffer containing 10% w/w Labrasol®. Aliquots of 0.5 mL buffer solutions were removed periodically from serosal chambers, and replaced with equal volumes of fresh warm (37±2° C.) HEPES buffer previously saturated with 100% O2. To study the effect of additives in the serosal chamber (i.e., quinidine and sodium decanoate), HEPES buffer containing the selected additive was placed in the serosal chamber and replaced with the same buffer composition during sampling.
(§6) Changes in transepithelial short-circuit current (in micro-Amps) and membrane resistance (in Ohms) as a function of time were monitored continuously during in vitro studies to serve as indicators of tissue viability and drug permeability, respectively. The buffer samples from the receptor chambers were analyzed for VCM content on a high pressure liquid chromatograph (HPLC; Hewlett Packard Model 1100 series).
(§7) The analysis of VCM samples was performed using a reverse phase gradient HPLC method, with a Hypersil BDS C18 column, 5 μm, 150×4.6 mm., mobile phase consisting of 5 mM potassium phosphate monobasic in water (pH 3) as solvent A and acetonitrile as solvent B at a flow rate of 1 ml/min (Farin et al., J Pharm Biomed Anal (1998) 18:367-72). The eluant was monitored by a UV/diode array detector at 280 nm.
(§8) To compare data obtained from different in vitro experiments, the apparent permeability coefficients were calculated using the equation: […]
(§9) Where dQ/dt is the linear appearance rate of mass in receiver compartment, C0 is the initial solute concentration in donor compartment, and A is the surface area (Luo et al., Drug Metab Dispos (2002) 30:763-70).

[2] = test system: rat duodenum; experiment: as above; format: in vitro ADME; details: 5 mg/ml vancomycin in HEPES buffer
From the text: as §1, §2, §3, §4, §5, §6, §7, §8, §9

[3] = In vitro mucosal-to-serosal vancomycin transport, modified Ussing chambers, jejunum; format: in vitro ADME, rat; details: male, rat
From the text: as §1, §2, §3, §4
as §5, with “To study the effect of additives in the serosal chamber (i.e., quinidine and sodium decanoate), HEPES buffer containing the selected additive was placed in the serosal chamber and replaced with the same buffer composition during sampling.” left out
as §6, §7, §8, §9

[4] = cited from earlier work

CN[C@H](CC(C)C)C(=O)N[C@H]1C(=O)N[C@@H](CC(N)=O)C(=O)N[C@H]2C(=O)N[C@H]3C(=O)N[C@H](C(=O)N[C@H](C(=O)O)c4cc(O)cc(O)c4-c4cc3ccc4O)[C@H](O)c3ccc(c(Cl)c3)Oc3cc2cc(c3O[C@@H]2O[C@H](CO)[C@@H](O)[C@H](O)[C@H]2O[C@H]2C[C@](C)(N)[C@H](O)[C@H](C)O2)Oc2ccc(cc2Cl)[C@H]1O [Vancomycin hydrochloride]
Papp at 2.5 hr, 5 mg/ml [1]: 0.2 ± 0.05 ×10⁻⁶ cm/s
Ave. Cumulative Amt VCM Released ([2]; 0.5 hr): 0.00 ± 0.00 µg
Ave. Cumulative Amt VCM Released ([2]; 1.0 hr): 0.00 ± 0.00 µg
Ave. Cumulative Amt VCM Released ([2]; 1.5 hr): 0.40 ± 0.80 µg
Ave. Cumulative Amt VCM Released ([2]; 2.0 hr): 2.08 ± 0.87 µg
Ave. Cumulative Amt VCM Released ([2]; 2.5 hr): 3.51 ± 1.34 µg
Papp at 2.5 hr, 5 mg/ml ([3]; pH 7.4, 5 mg/ml, HEPES buffer alone, jejunum): 0.62 ± 0.07 ×10⁻⁶ cm/s
Papp at 5 mg/ml ([3]; pH 7.4, 5 mg/ml, jejunum, 1.0 mM sodium decanoate in mucosal chamber): 1.74 ± 0.1 ×10⁻⁶ cm/s
Papp at 5 mg/ml ([3]; pH 7.4, 5 mg/ml, jejunum, 1.0 mM sodium decanoate in serosal chamber): 0.6 ± 0.02 ×10⁻⁶ cm/s
Papp at 5 mg/ml ([3]; pH 7.4, 5 mg/ml, jejunum, HEPES buffer containing 5% w/w Gelucire ® 44/14): 0.78 ± 0.03 ×10⁻⁶ cm/s
Papp at 5 mg/ml ([3]; pH 7.4, 5 mg/ml, jejunum, HEPES buffer containing 5% w/w Gelucire ® 44/14 + 5% w/w Labrasol ®): 0.71 ± 0.03 ×10⁻⁶ cm/s
Papp at 5 mg/ml ([3]; pH 7.4, 5 mg/ml, jejunum, HEPES buffer containing 5% w/w Polysorbate-80): 0.88 ± 0.09 ×10⁻⁶ cm/s
Papp at 5 mg/ml ([3]; pH 7.4, 5 mg/ml, jejunum, HEPES buffer containing 5% w/w Polysorbate-80 + 5% w/w Labrasol ®): 0.53 ± 0.06 ×10⁻⁶ cm/s
Papp at 5 mg/ml ([3]; pH 7.4, 5 mg/ml, jejunum, HEPES buffer containing 5% w/w Vitamin E TPGS + 5% w/w Labrasol ®): 0.56 ± 0.06 ×10⁻⁶ cm/s
Papp at 5 mg/ml ([3]; pH 7.4, 5 mg/ml, jejunum, HEPES buffer containing 10% w/w Labrasol ®): 0.36 ± 0.06 ×10⁻⁶ cm/s
Papp at 5 mg/ml ([3]; pH 7.4, 5 mg/ml, jejunum, HEPES buffer containing 20% w/w Bile salts): 3.67 ± 0.58 ×10⁻⁶ cm/s
Papp at 2.5 hr, 10 mg/mL ([3]; pH 7.4, 10 mg/mL, HEPES buffer alone, jejunum): 0.57 ± 0.13 ×10⁻⁶ cm/s
Papp at 2.5 hr, 25 mg/mL ([3]; pH 7.4, 25 mg/mL, HEPES buffer alone, jejunum): 0.54 ± 0.69 ×10⁻⁶ cm/s
Papp at 2.5 hr, 50 mg/mL ([3]; pH 7.4, 50 mg/mL, HEPES buffer alone, jejunum): 0.39 ± 0.47 ×10⁻⁶ cm/s
Papp at 2.5 hr, 5 mg/mL ([3]; pH 7.4, jejunum, in the presence of 10% w/w Labrasol®): 0.36 ×10⁻⁶ cm/s
Papp at 2.5 hr, 5 mg/ml ([3]; pH 7.4, with quinidine 0.15 mM in the mucosal chamber, 5 mg/ml, jejunum, 0.15 mM Quinidine in mucosal chamber): 0.79 ± 0.08 ×10⁻⁶ cm/s
Papp at 2.5 hr, 5 mg/ml ([3]; pH 7.4, with quinidine 0.15 mM in the serosal chamber, 5 mg/ml, jejunum, 0.15 mM Quinidine in serosal chamber): 2.06 ± 0.16 ×10⁻⁶ cm/s
solubility in water [4]: soluble in water
